{
  "source": "paper PMC12867150",
  "about": "“A fungi-derived cyclic peptide enhances Th9-mediated antitumor immunity by targeting ZAP70 and SREBP1” (The Journal of Clinical Investigation, 2025)",
  "key": {"endogenous CD4+ T cells": {"tested_on": "endogenous CD4+ T cells", "assay": "Cytokines and granzyme B/perforin in endogenous CD4+ T cells (Figure 3I, S4G-I)", "type": "in vivo, mouse", "parameters": "TNF-α expression / IFN-γ expression / Expression of IFN-g of endogenous CD4⁺ T cells in tumor / Expression of TNF-α of endogenous CD4⁺ T cells in tumor: unit not given here", "settings": "for Expression of IFN-g of endogenous CD4⁺ T cells in tumor: Supplemental Figure 4G; for Expression of TNF-α of endogenous CD4⁺ T cells in tumor: Supplemental Figure 4H; for Expression of GzmB+Perforin+ of endogenous CD4⁺ T cells in tumor: Supplemental Figure 4I", "experimental": "C57BL/6 mice were subcutaneously injected with 5 × 10^5 B16-OVA melanoma cells. Five days after tumor implantation, mice received an intravenous infusion of 2 × 10^6 in vitro–differentiated Th9 cells (cultured for 5 days), which were derived from OT-II CD45.1 donor mice, accompanied by 4 × 10^5 OVA peptide–pulsed DCs via the tail vein. To enhance T cell engraftment and facilitate lymphodepletion, a single intraperitoneal injection of cyclophosphamide (200 mg/kg, Sigma, catalog C0768) was administered 1 day prior to T cell transfer. Mice were euthanized at designated time points for the collection and analysis of spleens, tumor-draining lymph nodes, and tumor tissues.\n(§1) Details regarding staining panels (human and mouse), reagents (including clones and catalog numbers), acquisition settings, compensation/controls, and analysis procedures are provided in Supplemental Methods.\nBioLegend, Cat. No. 422301 or Mouse TruStain FcX™, BioLegend, Cat. No. 101319) for 10 minutes at 4°C. For surface marker detection, cells were stained with fluorochrome-conjugated monoclonal antibodies in 96-well V-bottom plates and incubated on ice for 30 minutes. After staining, cells were washed twice and resuspended in FACS buffer for analysis.\nPrior to intracellular cytokine staining, cells were restimulated for 4 hours with PMA (Absin, Cat. No. abs9107), ionomycin (Sigma-Aldrich, Cat. No. I0634), and brefeldin A (MedChemExpress, Cat. No. HY-16592). For intracellular cytokine staining, cells were first surface-stained as described above, then fixed and permeabilized using the BD Cytofix/Cytoperm™ kit (BD Biosciences, Cat. No. 554714) according to the manufacturer ’s protocol. Intracellular proteins were stained with directly conjugated antibodies targeting IL-9, IL-17a, IL-4, IFN-γ, TNF-α, FOXP3, p-ZAP70, Perforin, and […]\nAntibodies used for mouse samples included those against IL-9 (PE, clone RM9A4, Biolegend, Cat. No. 514104), IFN-γ (PE, clone XMG1.2, Biolegend, Cat. No.\nCat. No. 103138), CD4 (APC/Cy7, clone E-AB-F1353UJ, Elabscience, Cat. No.\nAF18028), CD8α (PerCP/Cy5.5, clone E-AB-F1104UJ, Elabscience, Cat. No. […]\nclone E-AB-F1187UH, Elabscience, Cat. No. AF19854), TNF-α (BV421, clone MP6-XT22, Biolegend, Cat. No. 506328), FOXP3 (PE, clone FJK-16s, eBioscience, Cat. No.\nPerforin (APC, clone S16009A, Biolegend, Cat. No. 154303) and Granzyme B (APC, clone QA16A02, Biolegend, Cat. No. 372203). For human samples, antibodies against CD4 (PerCP/Cy5.5, clone RPA-T4, Biolegend, Cat. No. 300530; APC/Cy7, clone OKT4, Biolegend, Cat. No. 317418), CD19 (APC/Cy7, clone SJ25C1, Biolegend, Cat.\nNo. 363009), IFN-γ (PE, clone 4S.B3, Biolegend, Cat. No. 502509), IL-9 (PE, clone"}, "TNF-α in human Th9 cells": {"tested_on": "TNF-α in human Th9 cells", "assay": "Flow cytometry of TNF-α in human Th9 cells (Figure 8G)", "type": "cell-based", "experimental": "For Th9 polarization, cultures were supplemented with IL-4 (10 ng/mL, PeproTech, catalog AF-200-04), TGF-β (1 ng/mL), and neutralizing anti–IFN-γ monoclonal antibody (10 μg/mL, clone B27, BioXcell, catalog BE0245). After 3 days of initial culture, cells were either collected for downstream assays or continued in extended culture with refreshed cytokines to maintain lineage commitment without antibodies. Th9 cells were collected at days 4, 5, and 6 for subsequent in vitro assays. For adoptive transfer studies, day 4–cultured Th9 cells were washed and prepared for intravenous injection.\nas §1\nMH9A4, Biolegend, Cat. No. 507605, PE/Cy7, clone MH9A4, Biolegend, Cat. No. […]\nclone Mab11, Biolegend, Cat. No. 502908), Perforin (APC, clone dG9, Biolegend, Cat.\nFlow cytometric acquisition was performed using a BD Fortessa or Cytek Aurora cytometer. Data were analyzed with FlowJo software (v10.8.1 or newer). Fluorescence compensation, isotype-matched controls, and fluorescence-minus-one (FMO) controls were applied as appropriate for multicolor panel validation.\nCells were washed twice with PBS and lysed in 1 × lysis buffer (NCM, Cat. No. […]"}, "[1]": {"settings": "endogenous CD4+, spleen, individual mice, n = 4"}},
  "note": "Where “and” joins values, the source holds several entries; their conditions need not be identical. Equal values may be shown once.",
  "data": [
    {"substance": "anteiso-C15 Leu7 surfactin [EpA]", "values": [
      {"measurement": "GzmB+ PRF1+ gate number", "setting": "endogenous CD4+ T cells; CD4+ T cells in tumors, representative flow plot, Figure S4I", "value": 5.26},
      {"measurement": "GzmB and Perforin expression", "setting": "endogenous CD4+ T cells; [1]", "value": "8.38 and 8.7 and 5.23 and 4.52"},
      {"measurement": "IFN-γ expression", "setting": "endogenous CD4+ T cells; [1]", "value": "10.3 and 15 and 14.6 and 10.5"},
      {"measurement": "TNF-α expression", "setting": "endogenous CD4+ T cells; [1]", "value": "13.3 and 10.2 and 13.4 and 20.6"},
      {"measurement": "TNF-α expression of CD4+ T cells", "setting": "endogenous CD4+ T cells; spleen, result in words", "value": "remained unchanged"},
      {"measurement": "granzyme B+ perforin+ CD4+ T cells", "setting": "endogenous CD4+ T cells; spleen, result in words", "value": "pronounced increase"},
      {"measurement": "Expression of IFN-g of endogenous CD4⁺ T cells in tumor", "setting": "endogenous CD4+ T cells; replicate 1", "value": 193},
      {"measurement": "Expression of IFN-g of endogenous CD4⁺ T cells in tumor", "setting": "endogenous CD4+ T cells; replicate 2", "value": 141},
      {"measurement": "Expression of IFN-g of endogenous CD4⁺ T cells in tumor", "setting": "endogenous CD4+ T cells; replicate 3", "value": 342},
      {"measurement": "Expression of IFN-g of endogenous CD4⁺ T cells in tumor", "setting": "endogenous CD4+ T cells; replicate 4", "value": 291},
      {"measurement": "Expression of TNF-α of endogenous CD4⁺ T cells in tumor", "setting": "endogenous CD4+ T cells; replicate 1", "value": 483},
      {"measurement": "Expression of TNF-α of endogenous CD4⁺ T cells in tumor", "setting": "endogenous CD4+ T cells; replicate 2", "value": 294},
      {"measurement": "Expression of TNF-α of endogenous CD4⁺ T cells in tumor", "setting": "endogenous CD4+ T cells; replicate 3", "value": 665},
      {"measurement": "Expression of TNF-α of endogenous CD4⁺ T cells in tumor", "setting": "endogenous CD4+ T cells; replicate 4", "value": 542},
      {"measurement": "Expression of GzmB+Perforin+ of endogenous CD4⁺ T cells in tumor", "setting": "endogenous CD4+ T cells; replicate 1", "value": 5.25},
      {"measurement": "Expression of GzmB+Perforin+ of endogenous CD4⁺ T cells in tumor", "setting": "endogenous CD4+ T cells; replicate 2", "value": 5.18},
      {"measurement": "Expression of GzmB+Perforin+ of endogenous CD4⁺ T cells in tumor", "setting": "endogenous CD4+ T cells; replicate 3", "value": 5.26},
      {"measurement": "Expression of GzmB+Perforin+ of endogenous CD4⁺ T cells in tumor", "setting": "endogenous CD4+ T cells; replicate 4", "value": 9.14},
      {"measurement": "TNF-α expression of CD4+ T cells", "setting": "endogenous CD4+ T cells; tumors, result in words", "value": "upregulated TNF-α expression"},
      {"measurement": "TNF-α production in human CD4⁺ T cells (flow cytometric analysis)", "setting": "TNF-α in human Th9 cells; Figure 8G, Th9-polarizing conditions, individual replicates, one per column (n = 4)", "value": "321000 and 314000 and 322000 and 302000"},
      {"measurement": "TNF-α expression, human Th9", "setting": "TNF-α in human Th9 cells; result in words", "value": "higher TNF-α expression"}
    ]}
  ]
}
